Legend:
[1] = Non-conditioned passive avoidance test in rats (antianxiety); type: in vivo, Wistar strain rats; design: key: Active: the number of shocks received by the test group is significantly higher than the control group by the Mann-Witney U test; details: 25 mg/kg, oral or intraperitoneal
Procedure: The antianxiety effects of the novel compounds of the present invention have been assessd in a non-conditioned passive avoidance procedure described by J. R. Vogel, B. Beer and D. E. Clody, "A Simple and Reliable Conflict Procedure for Testing Antianxiety Agents", Psychopharmacologia, 21, 1-7 (1971). A conflict situation was induced in rats by a modification of this method.
Groups of 6 naive, Wistar strain rats, weighing 200-240 g each, were deprived of water for 48 hours and food for 24 hours. The test compounds were administered in single or graded, oral or intraperitoneal doses, suspended in a 2% starch vehicle containing 0.5% v/v polyethylene glycol and one drop of Polysorbate 80. Control animals received the vehicle alone. At 30 or 60 minutes each rat was placed in an individual plexiglass chamber. Water was available ad libitum from a tap located in the rear of the chamber. A 0.7 milliampere DC shocking current was established between the stainless steel grid floor and the tap. After 20 licks of non-shocked drinking, a shock was delivered for 2 seconds and then further shocks were delivered on a ratio of one shock for 2 seconds for every 20 licks. This was continued for a total of 3 minutes. The number of shocks taken by each rat during the 3 minute interval was recorded and compared to a control group.

Hypoxic Survival Test = type: in vivo, Royal Hart mice; details: 50 mg/kg i.p., 10% oxygen, 5 minutes
Procedure: Groups of 20 Royal Hart mice (6 weeks of age) are injected intraperitoneally with 10, 50 or 100 mg/kg of test compound 30 minutes prior to placing them in a hypoxic mixture (10% oxygen in 90% […]) and measuring survival after 5 minutes.
A separate group of 20 mice is injected intraperitoneally with saline solution (0.01 cc/g of body weight) and processed as described above.
Still another group of 20 mice is injected intraperitoneally with 0.125 mg/kg of physostigmine and processed as described above.

[2] = Passive Avoidance Anoxic Induced Amnesia Test; type: in vivo, Swiss-Webster, middle-aged mice; details: 100 mg/kg i.p., 30 minutes prior to training and testing; over saline control
Excerpt: Another in vivo test associated with decreased neural function in mammals is the Passive Avoidance Anoxic Induced Amnesia Test. This test is used to determine the attenuation of anoxic induced amnesia in mice treated with drug, as compared to saline treated control animals with no drug.
A shock-motivated, single trial, step-through passive avoidance procedure is used. Groups of 25 Swiss-Webster, middle-aged mice (9 months of age) are placed singly in the front chamber of a 2-chamber box and are allowed to voluntarily cross into the rear chamber. As soon as the mouse enters the rear chamber, a guillotine door automatically traps the animal and a mild electric shock (0.4 mA for 4 seconds) is delivered to its feet. Following the foot shock, the mice are initially placed in an anoxic environment (0% oxygen) for 12 seconds, which quickly induces unconsciousness. They are then placed in a hypoxic environment (15% oxygen) for four minutes which prolongs the oxygen deprived state, maintaining unconsciousness. All testing is performed 24 hours later, and in all cases the mice appear fully recovered from the previous anoxic/hypoxic treatment. All test compounds are administered intraperitoneally at a dose of 10-100 mg/kg, 30 minutes prior to training and testing. […]
The latency to enter the rear chamber is recorded for both training and testing. […]

[3] = Hypotensive activity in spontaneously hypertensive rats; type: in vivo, spontaneously hypertensive rats of the Okamoto strain; details: 100 mg/kg by gavage, two doses 24 hours apart, measured at 28 hours after the initial dose; one or two rats
Procedure: The novel compounds of the present invention are active hypotensive agents and were tested for hypotensive activity by the method of P. S. Chan and D. Poorvin, Clinical and Experimental Hypertension, 1 (6), 817-830 (1979). […] One to 3 rats are used per test compound. A rat is dosed by gavage with a test compound suspended in 2% pre-boiled starch at a concentration of 50 mg/ml, at a dose of 100 mg/kg of body weight or less, with 0.9% sodium chloride loading at a dose of 25 ml/kg of body weight. A second identical dose of the test compound, without sodium chloride loading is given 24 hours later. At 28 hours after the initial dose the mean arterial blood pressure is measured by the method of Chan and Poorvin (see above). The procedure is repeated in a second and third rat when necessary. The results of this test on representative compounds of the present invention which were obtained using one or two rats, at a dose of 100 mg/kg of body weight appear below in Table I.

SMILES | Result (non-conditioned passive avoidance) [1] | % Survivors (Hypoxic Survival Test) [%] | % Improvement [2] [%] | Mean Arterial Blood Pressure [3]
N#Cc1c(N2CCN(Cc3cccc(Cl)c3)CC2)nn2c(-c3ccccc3)ccnc12 [2-[4-[(3-Chlorophenyl)methyl]-1-piperazinyl]-7-phenylpyrazolo[1,5-a]pyrimidine-3-carbonitrile] | Active | – | – | –
N#Cc1c(N2CCN(Cc3ccccc3)CC2)nn2c(-c3cccc(C(F)(F)F)c3)ccnc12 [2-[4-(Phenylmethyl)-1-piperazinyl]-7-[3-(trifluoromethyl)phenyl]pyrazolo[1,5-a]pyrimidine-3-carbonitrile] | – | 52 | 44 | –
N#Cc1c(N2CCOCC2)nn2c(-c3cccc(C(F)(F)F)c3)ccnc12 [2-(4-Morpholinyl)-7-[3-(trifluoromethyl)phenyl]pyrazolo[1,5-a]pyrimidine-3-carbonitrile] | Active | – | – | 142 mm of mercury
Cc1cc(-c2ccccc2)n2nc(N3CCN(Cc4ccccc4)CC3)c(C#N)c2n1 [5-Methyl-7-phenyl-2-[4-(phenylmethyl)-1-piperazinyl]-pyrazolo[1,5-a]pyrimidine-3-carbonitrile] | Active | – | – | 131 mm of mercury

Source: US4576943A, “Pyrazolo[1,5-a]pyrimidines” (American Cyanamid Company, priority 1984, dated 1986)
